As for `O=C(/C=C/c1ccc2cc[nH]c2c1)CC(=O)/C=C/c1ccc2cc[nH]c2c1` [CU391, (1E,6E)-1,7-bis(1H-indol-6-yl)hepta-1,6-diene-3,5-dione], the melting point was 247 to 255 °C. `O=C(/C=C/c1cccc2cc[nH]c12)CC(=O)/C=C/c1cccc2cc[nH]c12` [CU392, (1E,6E)-1,7-bis(1H-indol-7-yl)hepta-1,6-diene-3,5-dione] displayed a melting point of 211 to 215 °C.

Consider `O=C(/C=C/c1cc2ccccc2[nH]1)CC(=O)/C=C/c1cc2ccccc2[nH]1` [CU393, (1E,6E)-1,7-bis(1H-indol-2-yl)hepta-1,6-diene-3,5-dione], for which the melting point was in the range of 264 to 268 °C. Under `CC(C)(C)OC(=O)N[C@@H](Cc1ccccc1)C(=O)Nc1ccc(/C=C/C(=O)CC(=O)/C=C/c2ccc(O)cc2)cc1` [CU396, (1E,6E)-1-(4-hydroxyphenyl)-7-[4-((S)-2-tert-butoxycarbonylamino-3-phenylpropionylamino)phenyl]hepta-1,6-diene-3,5-dione] stands 116 to 121 °C; under `O=C(/C=C/c1cn(Cc2ccccc2)c2ccccc12)CC(=O)/C=C/c1cn(Cc2ccccc2)c2ccccc12` [CU397, (1E,6E)-1,7-bis(1-benzyl-1H-indol-3-yl)hepta-1,6-diene-3,5-dione], 206 to 213 °C; under `O=C(/C=C/c1ccc(O)cc1)CC(=O)/C=C/c1ccc2ccn(Cc3ccccc3)c2c1` [CU400, (1E,6E)-1-(1-benzyl-1H-indol-6-yl)-7-(4-hydroxyphenyl)hepta-1,6-diene-3,5-dione], 164 to 170 °C.

`CS(=O)(=O)n1cc(/C=C/C(=O)CC(=O)/C=C/c2ccc(O)cc2)c2ccccc21` [CU401, (1E,6E)-1-(4-hydroxyphenyl)-7-[1-(methylsulfonyl)-1H-indol-3-yl]hepta-1,6-diene-3,5-dione] gave a melting point of 196 to 200 °C. `Cc1ccc(S(=O)(=O)n2cc(/C=C/C(=O)CC(=O)/C=C/c3ccc(O)cc3)c3ccccc32)cc1` [CU403, (1E,6E)-1-(4-hydroxyphenyl)-7-(1-tosyl-1H-indol-3-yl)hepta-1,6-diene-3,5-dione] registered a melting point of 218 to 222 °C.

For `Cc1ccc(S(=O)(=O)n2ccc3ccc(/C=C/C(=O)CC(=O)/C=C/c4ccc(O)cc4)cc32)cc1` [CU404, (1E,6E)-1-(4-hydroxyphenyl)-7-(1-tosyl-1H-indol-6-yl)hepta-1,6-diene-3,5-dione], the melting point lay in the range of 107 to 112 °C. As for `CC(C)(C)OC(=O)Nc1ccc(/C=C/C(=O)CC(=O)/C=C/c2ccc(O)cc2)cc1` [CU405, (1E,6E)-1-[4-(tert-butoxycarbonylamino)phenyl]-7-(4-hydroxyphenyl)hepta-1,6-diene-3,5-dione], the figure is 181 to 184 °C; as for `CC(C)(C)OC(=O)N[C@H](Cc1ccccc1)C(=O)Nc1ccc(/C=C/C(=O)CC(=O)/C=C/c2ccc(O)cc2)cc1` [CU406, (1E,6E)-1-[4-((R)-2-tert-butoxycarbonylamino-3-phenylpropionylamino)phenyl]-7-(4-hydroxyphenyl)hepta-1,6-diene-3,5-dione], 113 to 120 °C. Take `O=C(/C=C/c1ccc(O)cc1)CC(=O)/C=C/c1coc2ccccc2c1=O` [CU407, (1E,6E)-1-(chromon-3-yl)-7-(4-hydroxyphenyl)hepta-1,6-diene-3,5-dione]: the melting point lay in the range of 227 to 231 °C. Molecule `Nc1ccc(/C=C/C(=O)CC(=O)/C=C/c2ccc(O)cc2)cc1` [CU408, (1E,6E)-1-(4-aminophenyl)-7-(4-hydroxyphenyl)hepta-1,6-diene-3,5-dione] displayed a melting point of 212 to 217 °C. For `Cn1c(/C=C/C(=O)CC(=O)/C=C/c2cc3ccccc3n2C)cc2ccccc21` [CU409, (1E,6E)-1,7-bis(1-methyl-1H-indol-2-yl)hepta-1,6-diene-3,5-dione], the melting point was in the range of 189 to 196 °C.

In the case of `COc1cc(N(C)C)ccc1/C=C/C(=O)CC(=O)/C=C/c1ccc(N(C)C)cc1OC` [CU410, (1E,6E)-1,7-bis(4-dimethylamino-2-methoxyphenyl)hepta-1,6-diene-3,5-dione], the melting point is 76 to 86 °C. Molecule `CN(C)c1ccc(/C=C/C(=O)CC(=O)/C=C/c2ccc(N(C)C)cc2Cl)c(Cl)c1` [CU412, (1E,6E)-1,7-bis(2-chloro-4-dimethylaminophenyl)hepta-1,6-diene-3,5-dione] registered a melting point of 238 to 241 °C.

For `O=C(/C=C/c1cccc2cccnc12)CC(=O)/C=C/c1cccc2cccnc12` [CU414, (1E,6E)-1,7-bis(quinolin-8-yl)hepta-1,6-diene-3,5-dione], the melting point was 202 to 208 °C.

`COc1cc(=O)oc2ccc(/C=C/C(=O)CC(=O)/C=C/c3ccc(O)cc3)cc12` [CU415, (1E,6E)-1-(4-hydroxyphenyl)-7-(4-methoxycoumarin-6-yl)hepta-1,6-diene-3,5-dione]: the melting point was 250 to 254 °C. On to `COc1cc(/C=C/C(=O)CC(=O)/C=C/c2cn(Cc3ccccc3)c3ccccc23)ccc1O` [CU416, (1E,6E)-1-(1-benzyl-1H-indol-3-yl)-7-(4-hydroxy-3-methoxyphenyl)hepta-1,6-diene-3,5-dione], for which the melting point lay within 158 to 161 °C. The molecule `COc1ccc(/C=C/C(=O)CC(=O)/C=C/c2cn(Cc3ccccc3)c3ccccc23)cc1O` [CU417, (1E,6E)-1-(1-benzyl-1H-indol-3-yl)-7-(3-hydroxy-4-methoxyphenyl)hepta-1,6-diene-3,5-dione] registered a melting point of 194 to 199 °C. Under `CC(C)(C)OC(=O)N1CCc2ccc(/C=C/C(=O)CC(=O)/C=C/c3ccc(O)cc3)cc21` [CU419, (1E,6E)-1-[1-(tert-butoxycarbonyl)-indolin-6-yl]-7-(4-hydroxyphenyl)hepta-1,6-diene-3,5-dione] stands 111 to 118 °C; under `N[C@H](Cc1ccccc1)C(=O)Nc1ccc(/C=C/C(=O)CC(=O)/C=C/c2ccc(O)cc2)cc1` [CU423, (1E,6E)-1-[4-((R)-2-amino-3-phenylpropionylamino)phenyl]-7-(4-hydroxyphenyl)hepta-1,6-diene-3,5-dione], 161 to 167 °C; under `O=C(/C=C/c1ccc(O)cc1)CC(=O)/C=C/c1ccccc1CO` [CU424, (1E,6E)-1-(2-hydroxymethylphenyl)-7-(4-hydroxyphenyl)hepta-1,6-diene-3,5-dione], 173 to 180 °C. Under `CCN(CC)c1ccc(/C=C/C(=O)CC(=O)/C=C/c2ccc(O)cc2)c(OC(=O)c2ccccc2)c1` [CU425, (1E,6E)-1-(2-benzoyloxy-4-diethylaminophenyl)-7-(4-hydroxyphenyl)hepta-1,6-diene-3,5-dione] stands 212 to 215 °C. The molecule `CCN(CC)c1ccc(/C=C/C(=O)CC(=O)/C=C/c2ccc(O)cc2)c(OCC=C(C)C)c1` [CU426, (1E,6E)-1-(4-diethylamino-2-prenyloxyphenyl)-7-(4-hydroxyphenyl)hepta-1,6-diene-3,5-dione] yielded a melting point of 69 to 76 °C. `CCN(CC)c1ccc(/C=C/C(=O)CC(=O)/C=C/c2ccc(N(CC)CC)cc2OC(=O)c2ccccc2)c(OC(=O)c2ccccc2)c1` [CU427, (1E,6E)-1,7-bis(2-benzoyloxy-4-diethylaminophenyl)hepta-1,6-diene-3,5-dione] displayed a melting point of 192 to 196 °C. Molecule `CCN(CC)c1ccc(/C=C/C(=O)CC(=O)/C=C/c2ccc(O)cc2)c(OCCO)c1` [CU430, (1E,6E)-1-[4-diethylamino-2-(2-hydroxyethoxy)phenyl]-7-(4-hydroxyphenyl)hepta-1,6-diene-3,5-dione] came in with a melting point of 182 to 186 °C. The molecule `CCN(CC)c1ccc(/C=C/C(=O)CC(=O)/C=C/c2ccc(N(CC)CC)cc2OCC=C(C)C)c(OCC=C(C)C)c1` [CU431, (1E,6E)-1,7-bis(4-diethylamino-2-prenyloxyphenyl)hepta-1,6-diene-3,5-dione] registered a melting point of 107 to 113 °C. Take `CCN(CC)c1ccc(/C=C/C(=O)CC(=O)/C=C/c2ccc(N(CC)CC)cc2OC(C)C)c(OC(C)C)c1` [CU433, (1E,6E)-1,7-bis(4-diethylamino-2-isopropyloxyphenyl)hepta-1,6-diene-3,5-dione]: the melting point was in the range of 63 to 66 °C. Molecule `CCN(CC)c1ccc(/C=C/C(=O)CC(=O)/C=C/c2ccc(O)c(OC)c2)c(OCc2ccccc2)c1` [CU437, (1E,6E)-1-(2-benzyloxy-4-diethylaminophenyl)-7-(4-hydroxy-3-methoxyphenyl)hepta-1,6-diene-3,5-dione] registered a melting point of 60 to 65 °C. As for `CCN(CC)c1ccc(/C=C/C(=O)CC(=O)/C=C/c2ccc(OC)c(O)c2)c(OCc2ccccc2)c1` [CU438, (1E,6E)-1-(2-benzyloxy-4-diethylaminophenyl)-7-(3-hydroxy-4-methoxyphenyl)hepta-1,6-diene-3,5-dione], the figure is 72 to 77 °C. Molecule `CCN(CC)c1ccc(/C=C/C(=O)CC(=O)/C=C/c2ccc(O)c(OC)c2)c(OC(C)C)c1` [CU439, (1E,6E)-1-(4-diethylamino-2-isopropyloxyphenyl)-7-(4-hydroxy-3-methoxyphenyl)hepta-1,6-diene-3,5-dione] displayed a melting point of 156 to 160 °C. The molecule `CCN(CC)c1ccc(/C=C/C(=O)CC(=O)/C=C/c2ccc(OC)c(O)c2)c(OC(C)C)c1` [CU440, (1E,6E)-1-(4-diethylamino-2-isopropyloxyphenyl)-7-(3-hydroxy-4-methoxyphenyl)hepta-1,6-diene-3,5-dione] displayed a melting point of 117 to 120 °C. `CCN(CC)c1ccc(/C=C/C(=O)CC(=O)/C=C/c2ccc(OC)c(O)c2)c(OCC=C(C)C)c1` [CU442, (1E,6E)-1-(4-diethylamino-2-prenyloxyphenyl)-7-(3-hydroxy-4-methoxyphenyl)hepta-1,6-diene-3,5-dione] showed a melting point of 139 to 143 °C.

In the case of `COc1cc(/C=C/C(=O)CC(=O)/C=C/c2ccc3ccn(Cc4ccccc4)c3c2)ccc1O` [CU443, (1E,6E)-1-(1-benzyl-1H-indol-6-yl)-7-(4-hydroxy-3-methoxyphenyl)hepta-1,6-diene-3,5-dione], the melting point fell in the range of 180 to 184 °C. Take `COc1ccc(/C=C/C(=O)CC(=O)/C=C/c2ccc3ccn(Cc4ccccc4)c3c2)cc1O` [CU444, (1E,6E)-1-(1-benzyl-1H-indol-6-yl)-7-(3-hydroxy-4-methoxyphenyl)hepta-1,6-diene-3,5-dione]: the melting point is 190 to 194 °C.

For the origin of these results see patent publication US8962674B2 (Tokyo Institute of Technology, priority 2006, dated 2015).
